Read-outs that look alike come from different tables or passages of the source.
Assays:
Streptavidin = experiment: BIAcore binding of the compound of Example 3 to streptavidin conjugated matrix; settings: 2.5 mM injected
[1] = test system: T-cell proliferation (cells from the thymus of normal C3H mice); experiment: comitogen-induced thymocyte proliferation procedure (LAF); assay type: cell-based; settings: for inhibition at 0.0001 µM / inhibition at 0.001 µM / inhibition at 0.003 µM / inhibition at 0.01 µM / inhibition at 1 µM / IC50: Mus musculus, T-cell; for inhibition at 0.0001 µM: 0.1 nM (so in the source); for inhibition at 0.001 µM: 1 nM; for inhibition at 0.003 µM: 3 nM; for inhibition at 0.01 µM: 10 nM; for ratio compared to rapamycin: >1 = greater inhibition than rapamycin
Procedure: Immunosuppressive activity for a representative compound of this invention was evaluated in an in vitro standard pharmacological test procedure to measure the inhibition of lymphocyte proliferation (LAF).
The comitogen-induced thymocyte proliferation procedure (LAF) was used as an in vitro measure of the immunosuppressive effects of representative compounds. Briefly, cells from the thymus of normal C3H mice are cultured for 72 hours with PHA and IL-1 and pulsed with tritiated thymidine during the last six hours. Cells are cultured with and without various concentrations of rapamycin, cyclosporin A, or test compound. Cells are harvested and incorporated radioactivity is determined. Inhibition of lymphoproliferation is assessed as percent change in counts per minute from non-drug treated controls. For each compound evaluated, rapamycin was also evaluated for the purpose of comparison. An IC50 was obtained for each test compound as well as for rapamycin. […] The results are also expressed as a ratio compared to rapamycin. A positive ratio indicates immunosuppressive activity. […] Calculation of the ratio is shown below. [formula]

FKBP12 = experiment: Fluorescent Polarization Immunoassay (FPIA), tracer with FKBP12; assay type: binding
Description: (§1) The hybridoma cell line in P4G1 was cloned by limiting dilution and is designated as hybridoma cell line, RAP-42-OVAF2 #1hc-. The hybridoma cell line, RAP-42-OVAF2 #1hc, was deposited under the terms of the Budapest Treaty with the American Type Culture Collection (ATCC) of 12301 Parklawn Drive, Rockville, Md., 20852, U.S.A., on Mar. 10, 1994, and was granted accession number HB 11568. […] The ring opened rapamycin-specific antibody, designated as RAP-42-OVAF2 #1MoAb, was isolated and purified using conventional methodology.

[2] = Fluorescent Polarization Immunoassay (FPIA), tracer background
Description: as §1

RAP-42-OVAF2#1MoAb [3] = experiment: Fluorescent Polarization Immunoassay (FPIA), tracer with antibody; assay type: binding
Description: as §1

RAP-42-OVAF2#1MoAb [4] = experiment: FPIA competition of the binding between the antibody and A3 tracer
Description: as §1

IgE-like antibodies = settings: Martel et al.; cited from earlier work
[5] = target: glutathione S-transferase-FK506 binding protein (GST-FKBP) (Homo sapiens, UniProt P62942); experiment: Rapamycin Competitive Binding Assay using the Compound of Example 3, receptor based (Table 3); settings: compound of Example 3 50 ng/ml, 450 nm
Sequence of glutathione S-transferase-FK506 binding protein (GST-FKBP) (P62942 2-108): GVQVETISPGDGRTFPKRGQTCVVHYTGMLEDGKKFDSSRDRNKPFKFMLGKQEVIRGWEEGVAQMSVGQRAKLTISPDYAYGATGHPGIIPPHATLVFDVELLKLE
Procedure: The following is an example of the use of the compounds of this invention in a receptor based assay to measure rapamycin levels using a rapamycin-binding protein and the compound of Example 3 as the ligand. Wells of microtiter plates were coated with 0.5 μg/well of the fusion protein, glutathione S-transferase-FK506 binding protein (GST-FKBP), in 100 μl of 0.02M HEPES buffer, pH 7.4. Plates were incubated overnight at 4° C. Plates were washed 3 × with HEPES buffer. Well surfaces were blocked by the addition of 1% bovine serum albumin fraction V (BSA) in HEPES buffer ([…]). Plates were incubated for 1 hour at ambient temperature. Plates were washed three times. Various concentrations of rapamycin were added to the compound of Example 3 (50 ng/ml) and 100 μl of the solutions were added to wells in triplicate. After incubation of the plates at ambient temperature followed by washing the plates with HEPES buffer, 100 μl of diluted avidin-horseradish peroxidase conjugate was added to each well. After incubation for 1 hour at ambient temperature and washing five times, 100 μl of tetramethylbenzidine substrate was added to each well. The plates were incubated for 30 minutes in the dark at ambient temperature. The reactions were stopped and the optical density was read at 450 nm.

adjuvant arthritis model = settings: model for rheumatoid arthritis; Martel et al.; cited from earlier work
[6] = test system: rapamycin specific antibody; experiment: competitive inhibition ELISA, binding of the compound of Example 3 to rapamycin specific antibody (Table 2); settings: for OD: compound of Example 3 0.17 μM, 492 nm
Procedure: The compound of Example 3 was used as a representative compound of this invention. Microtiter plates (Immulon I) were coated overnight with 100 μl of goat anti-mouse antibody (10 μg/ml in 10 mM potassium phosphate buffer, pH 7.2) at 4° C. The plates were flicked and blocked with 100 μl of 1% bovine sera albumin in phosphate buffered saline overnight at 4° C. After flicking and washing the plates three times with 0.2×PBS containing 0.02% Triton X-100 and 0.004% thimerosal, rapamycin specific antibody (100 μl of 1 μg/ml) was added to each well and incubated at room temperature for 1-4 hour. After flicking and washing the plates three times with 0.2×PBS containing 0.02% Triton X- 100 and 0.004% thimerosal, the compound of Example 3 (100 μl, 0.17 μM) in the presence or absence of various concentrations of rapamycin was added and incubated for 1 hour. After flicking and washing the plates three times with 0.2×PBS containing 0.02% Triton X-100 and 0.004% thimerosal, streptavidin conjugated to horseradish peroxidase (100 μl, 0.2 μg/ml) was incubated at room temperature for 1 hour in the dark. After flicking and washing the plates three times with 0.2×PBS containing 0.02% Triton X-100 and 0.004% thimerosal, OPD substrate was added and the plates were incubated covered for 15 min. at room temperature in the dark. The optical density was read on a spectrophotometer at 492 nm.

[7] = test system: experimental allergic encephalomyelitis model; settings: model for multiple sclerosis; Martel et al.; cited from earlier work

## CO[C@H]1C[C@@H]2CC[C@@H](C)[C@@](O)(O2)C(=O)C(=O)N2CCCC[C@H]2C(=O)O[C@H]([C@H](C)C[C@@H]2CC[C@@H](OC(=O)CNC(=O)CCCC[C@@H]3SC[C@@H]4NC(=O)N[C@@H]43)[C@H](OC)C2)CC(=O)[C@H](C)/C=C(\C)[C@@H](O)[C@@H](OC)C(=O)[C@H](C)C[C@H](C)/C=C/C=C/C=C/1C [Example 3, Rapamycin 42-ester with glycylbiotin]
Streptavidin
  resonance units bound: 115 resonance units
[1]; first evaluation
  inhibition at 0.0001 µM: 98%
  inhibition at 0.001 µM: 46%
  inhibition at 0.003 µM: 65%
  inhibition at 0.01 µM: 95%
  inhibition at 1 µM: 99%
  ratio compared to rapamycin: 2.39
[1]; first evaluation, read-out: IC50
  IC50: 2.8 nM
[1]; second evaluation
  inhibition at 0.0001 µM: 94%
  inhibition at 0.001 µM: 16%
  inhibition at 0.003 µM: 51%
  inhibition at 0.01 µM: 88%
  inhibition at 1 µM: 96%
  ratio compared to rapamycin: 0.63
[1]; second evaluation, read-out: IC50
  IC50: 1.3 nM

## secorapamycin 42-ester with succinic acid conjugate with 5-fluoresceinamine [Example A3]
FKBP12; A3 in presence of FKBP12 (background levels)
  polarization reading: 79 mP
[2]; A3 tracer alone
  background reading (polarization): 75 mP
RAP-42-OVAF2#1MoAb [3]; A3 in presence of RAP-42-OVAF2#1MoAb
  polarization reading: 178 mP

## CO[C@H]1C[C@@H]2CC[C@@H](C)[C@@](O)(O2)C(=O)C(=O)N2CCCC[C@H]2C(=O)O[C@H]([C@H](C)C[C@@H]2CC[C@@H](OC(=O)CCC(=O)NCC(=O)Nc3ccc4c(c3)C(=O)OC43c4ccc(O)cc4Oc4cc(O)ccc43)[C@H](OC)C2)CC(=O)[C@H](C)/C=C(\C)[C@@H](O)[C@@H](OC)C(=O)[C@H](C)C[C@H](C)/C=C/C=C/C=C/1C [rapamycin 42-ester with succinic acid conjugate with 5-glycinylfluoresceinamine]
FKBP12; tracer 10 nM, after addition of an excess of FKBP12
  polarization: 195 mP
[2]; tracer alone, 10 nM, 100 mM sodium phosphate pH 7.5
  polarization: 77 mP
RAP-42-OVAF2#1MoAb [3]; tracer 10 nM, excess of RAP-42-OVAF2#1MoAb
  polarization: 84 mP

## CO[C@H]1C[C@@H]2CC[C@@H](C)[C@@](O)(O2)C(=O)C(=O)N2CCCC[C@H]2C(=O)O[C@H]([C@H](C)C[C@@H]2CC[C@@H](O)[C@H](OC)C2)CC(=O)[C@H](C)/C=C(\C)[C@@H](O)[C@@H](OC)C(=O)[C@H](C)C[C@H](C)/C=C/C=C/C=C/1C [rapamycin]
RAP-42-OVAF2#1MoAb [4]; after 38 min
  polarization, competition of the binding between the antibody and A3 tracer: 121 mP
RAP-42-OVAF2#1MoAb [4]; at 3 min
  polarization, competition of the binding between the antibody and A3 tracer: 155 mP
IgE-like antibodies
  inhibition of formation of IgE-like antibodies: effectively inhibited
[5]; rapamycin 1.5625 ng/ml
  Optical Density: 2.6160
[5]; rapamycin 3.125 ng/ml
  Optical Density: 2.3040
[5]; rapamycin 6.25 ng/ml
  Optical Density: 2.0557
[5]; rapamycin 12.5 ng/ml
  Optical Density: 1.3913
[5]; rapamycin 25 ng/ml
  Optical Density: 0.7473
[5]; rapamycin 50 ng/ml
  Optical Density: 0.3573
[5]; rapamycin 100 ng/ml
  Optical Density: 0.2433
[5]; rapamycin 200 ng/ml
  Optical Density: 0.2177
Adjuvant arthritis model
  effect in adjuvant arthritis model: effective
[1]; first evaluation
  IC50: 6.7 nM
[1]; second evaluation
  IC50: 0.8 nM
[6]; rapamycin 0.005 μM
  % INHIBITION of binding of the compound of Example 3: 6.6%
  OD: 1.866
[6]; rapamycin 0.05 μM
  % INHIBITION of binding of the compound of Example 3: 7.8%
  OD: 1.842
[6]; rapamycin 0.5 μM
  % INHIBITION of binding of the compound of Example 3: 30.1%
  OD: 1.419
[6]; rapamycin 5 μM
  % INHIBITION of binding of the compound of Example 3: 67.6%
  OD: .705
[7]
  effect in experimental allergic encephalomyelitis model: effective

## CO[C@@H](C[C@@H]1CC[C@@H](C)[C@](O)(C(=O)C(=O)N2CCCC[C@H]2C(=O)O)O1)/C(C)=C/C=C/C=C/[C@@H](C)C[C@@H](C)C(=O)[C@H](OC)[C@H](O)/C(C)=C/[C@@H](C)C(=O)/C=C/[C@H](C)C[C@@H]1CC[C@@H](O)[C@H](OC)C1 [secorapamycin]
RAP-42-OVAF2#1MoAb [4]; after 38 min
  polarization, competition of the binding between the antibody and A3 tracer: 89 mP
RAP-42-OVAF2#1MoAb [4]; at 3 min
  polarization, competition of the binding between the antibody and A3 tracer: 105 mP
